Test results from paper PMC10313671, “Accelerating the prediction and discovery of peptide hydrogels with human-in-the-loop” (Nature Communications, 2023).
Where a SMILES comes first, the peptide text is derived from it.

Legend:
[1] = Transmission electron microscope (negative staining) of peptide assemblies; conditions: for Morphology: TEM, negative staining with uranyl acetate, 120 kV; for morphology by TEM (in words): aqueous solution or hydrogel, negative staining
Method: We used the negative staining technique to observe the morphologies formed by peptides. A micropipette was used to load 10 μL of sample solution to a carbon-coated copper grid, and we used a piece of filter paper to remove the excess solution. After rinsing the grid with the deionized water, we used uranyl acetate to stain the sample for 1 minute and then rinsed the grid with deionized water again.

[2] = Peptide hydrogel formation, vial-inverting method; type: physicochemical; set-up: key to EXP / GELATION: 0: no hydrogel; 1: hydrogel; conditions: for State: ultrasonication, standing 48 h; for State / GELATION / hydrogel formation (in words): vial-inverting method; for Concentration: concentration at which the state was recorded: lowest of 30, 60, 90, 120 mM that gave a gel, 120 mM for non-gelating peptides; for GELATION: 1 = hydrogel, 0 = no hydrogel; for hydrogel formation (in words): representative hydrogels pH between 7.0 to 7.5
How it was run: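 Gelation judged by vial inversion, a non-flowing self-supporting sample counting as hydrogel, after 48 h standing. Peptide in water at 30 mM first, escalating to 60, 90 and 120 mM if no gel; pH set to 6.5–8.5 by stepwise 1 N NaOH, each step sonicated briefly.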

[3] = 120 mM peptide (highest tested) in ultrapure water, pH 6.5-8.5 (1 N NaOH), precipitate, sol, suspension = no gel
[4] = 30 mM peptide in ultrapure water, pH adjusted to 6.5-8.5 with 1 N NaOH, concentration raised 30/60/90/120 mM until gelation
[5] = 60 mM peptide in ultrapure water, pH 6.5-8.5 (1 N NaOH), no gel at 30 mM

| Compound | Morphology ([1]; line of the table gives 120 mM) | State [2, 3] | Concentration [2] [mM] | GELATION ([2]; peptide concentration 120 mM) | other results |
| --- | --- | --- | --- | --- | --- |
| N[C@@H](CO)C(=O)N[C@@H](Cc1c[nH]c2ccccc12)C(=O)N[C@@H](Cc1ccc(O)cc1)C(=O)N[C@@H](Cc1ccccc1)C(=O)O [SWYF] (H-SWYF-OH) | fibre | gel | 120 | 1 |  |
| N[C@@H](CO)C(=O)N[C@@H](Cc1ccc(O)cc1)C(=O)N[C@@H](Cc1ccccc1)C(=O)N[C@@H](Cc1ccccc1)C(=O)O [SYFF] (H-SYFF-OH) |  |  | 30 |  | Morphology ([1]; line of the table gives 30 mM): fibre; State [2, 4]: gel; GELATION ([2]; peptide concentration 30 mM): 1 |
| CC(C)[C@H](NC(=O)[C@H](C)NC(=O)[C@@H](N)[C@@H](C)O)C(=O)N[C@@H](Cc1ccccc1)C(=O)O [TAVF] (H-TAVF-OH) | sheet | gel | 120 | 1 |  |
| C[C@@H](O)[C@H](N)C(=O)NCC(=O)N[C@@H](Cc1ccccc1)C(=O)N[C@@H](Cc1ccccc1)C(=O)O [TGFF] (H-TGFF-OH) | aggregates | gel | 120 | 1 |  |
| C[C@@H](O)[C@H](N)C(=O)N[C@@H](CCCNC(=N)N)C(=O)N[C@@H](Cc1ccccc1)C(=O)N[C@@H](CO)C(=O)O [TRFS] (H-TRFS-OH) | particle | suspension | 120 |  | morphology by TEM (in words) [1]: aggregates with different sizes |
| C[C@@H](O)[C@H](N)C(=O)N[C@H](C(=O)N[C@H](C(=O)N[C@H](C(=O)O)[C@@H](C)O)[C@@H](C)O)[C@@H](C)O [TTTT] (H-TTTT-OH) | aggregates | suspension | 120 | 0 |  |
| CC(C)[C@H](N)C(=O)N[C@@H](C)C(=O)N[C@@H](Cc1ccccc1)C(=O)N[C@@H](Cc1ccc(O)cc1)C(=O)O [VAFY] (H-VAFY-OH) | sphere | gel | 120 | 1 |  |
| CC(C)C[C@H](NC(=O)[C@H](C)NC(=O)[C@@H](N)C(C)C)C(=O)N[C@@H](CCC(=O)O)C(=O)O [VALE] (H-VALE-OH) | aggregates | suspension | 120 | 0 |  |
| CC(C)C[C@H](NC(=O)[C@H](C)NC(=O)[C@@H](N)C(C)C)C(=O)N[C@H](C(=O)O)C(C)C [VALV] (H-VALV-OH) | aggregates | sol | 120 | 0 | EXP ([2]; experimental gelation result of the synthesized peptide): 0 |
| CC(C)[C@H](N)C(=O)N[C@@H](Cc1ccccc1)C(=O)N[C@@H](Cc1c[nH]cn1)C(=O)N[C@@H](CC(N)=O)C(=O)O [VFHN] (H-VFHN-OH) | aggregates | suspension | 120 | 0 |  |
| CSCC[C@H](NC(=O)[C@H](CCSC)NC(=O)[C@H](Cc1ccccc1)NC(=O)[C@@H](N)C(C)C)C(=O)O [VFMM] (H-VFMM-OH) | fibre | gel | 120 | 1 |  |
| CC(C)[C@H](N)C(=O)N[C@@H](Cc1ccccc1)C(=O)N[C@H](C(=O)N[C@@H](Cc1ccccc1)C(=O)O)C(C)C [VFVF] (H-VFVF-OH) |  |  | 30 |  | Morphology ([1]; line of the table gives 30 mM): sheet; State [2, 4]: gel; GELATION ([2]; peptide concentration 30 mM): 1 |
| CC[C@H](C)[C@H](NC(=O)[C@H](CC(C)C)NC(=O)[C@@H](NC(=O)[C@@H](N)C(C)C)[C@@H](C)CC)C(=O)O [VILI] (H-VILI-OH) |  |  | 60 |  | Morphology ([1]; line of the table gives 60 mM): hybrid(sheet+fibre); State [2, 5]: gel; GELATION ([2]; peptide concentration 60 mM): 1 |
| CC(C)C[C@H](NC(=O)[C@@H](NC(=O)[C@H](CC(C)C)NC(=O)[C@@H](N)C(C)C)C(C)C)C(=O)O [VLVL] (H-VLVL-OH) | sheet | gel | 120 | 1 |  |
| CC(C)C[C@H](NC(=O)[C@@H](N)C(C)C)C(=O)N[C@H](C(=O)N[C@H](C(=O)O)C(C)C)C(C)C [VLVV] (H-VLVV-OH) | sheet | gel | 120 | 1 |  |
| CC(C)[C@H](N)C(=O)N[C@@H](CO)C(=O)N[C@@H](Cc1c[nH]c2ccccc12)C(=O)N[C@@H](Cc1ccc(O)cc1)C(=O)O [VSWY] (H-VSWY-OH) | particle | precipitate | 120 | 0 |  |
| CC(C)[C@H](N)C(=O)N[C@H](C(=O)N[C@H](C(=O)N[C@H](C(=O)O)C(C)C)C(C)C)C(C)C [VVVV] (H-VVVV-OH) |  |  | 60 |  | Morphology ([1]; line of the table gives 60 mM): sheet; State [2, 5]: gel; GELATION ([2]; peptide concentration 60 mM): 1 |
| CC[C@H](C)[C@H](NC(=O)[C@H](Cc1c[nH]c2ccccc12)NC(=O)[C@@H](N)C(C)C)C(=O)N[C@H](C(=O)O)[C@@H](C)O [VWIT] (H-VWIT-OH) | aggregates | precipitate | 120 | 0 |  |
| CC(C)[C@H](N)C(=O)N[C@@H](Cc1ccc(O)cc1)C(=O)N[C@H](C(=O)N[C@@H](Cc1ccccc1)C(=O)O)[C@@H](C)O [VYTF] (H-VYTF-OH) | particle | sol | 120 | 0 |  |
| C[C@H](NC(=O)[C@@H](N)Cc1c[nH]c2ccccc12)C(=O)N[C@@H](Cc1ccccc1)C(=O)N[C@@H](Cc1ccc(O)cc1)C(=O)O [WAFY] (H-WAFY-OH) |  |  | 60 |  | Morphology ([1]; line of the table gives 60 mM): fibre; State [2, 5]: gel; GELATION ([2]; peptide concentration 60 mM): 1 |
| CC(C)C[C@H](NC(=O)[C@H](C)NC(=O)[C@@H](N)Cc1c[nH]c2ccccc12)C(=O)N[C@@H](Cc1c[nH]c2ccccc12)C(=O)O [WALW] (H-WALW-OH) |  |  | 30 | 1 | Morphology ([1]; line of the table gives 30 mM): fibre; State [2, 4]: gel |
| CC(C)[C@H](NC(=O)[C@@H](NC(=O)[C@H](C)NC(=O)[C@@H](N)Cc1c[nH]c2ccccc12)C(C)C)C(=O)O [WAVV] (H-WAVV-OH) |  |  | 60 |  | Morphology ([1]; line of the table gives 60 mM): fibre; State [2, 5]: gel; GELATION ([2]; peptide concentration 60 mM): 1 |
| C[C@H](NC(=O)[C@@H](N)Cc1c[nH]c2ccccc12)C(=O)N[C@@H](Cc1ccc(O)cc1)C(=O)N[C@@H](Cc1ccccc1)C(=O)O [WAYF] (H-WAYF-OH) |  |  | 30 |  | Morphology ([1]; line of the table gives 30 mM): fibre; State [2, 4]: gel; GELATION ([2]; peptide concentration 30 mM): 1 |
| N[C@@H](Cc1c[nH]c2ccccc12)C(=O)N[C@@H](CCC(=O)O)C(=O)N[C@@H](Cc1ccccc1)C(=O)N[C@@H](Cc1ccccc1)C(=O)O [WEFF] (H-WEFF-OH) |  |  | 30 |  | Morphology ([1]; line of the table gives 30 mM): fibre; morphology by TEM (in words) [1]: entangled nanofibers; State [2, 4]: gel; GELATION ([2]; peptide concentration 30 mM): 1; hydrogel formation (in words) [2]: hydrogels |
| N[C@@H](Cc1c[nH]c2ccccc12)C(=O)N[C@@H](Cc1ccccc1)C(=O)N[C@@H](Cc1c[nH]cn1)C(=O)N1CCC[C@H]1C(=O)O [WFHP] (H-WFHP-OH) | aggregates | sol | 120 | 0 |  |
| CSCC[C@H](NC(=O)[C@H](CCSC)NC(=O)[C@H](Cc1ccccc1)NC(=O)[C@@H](N)Cc1c[nH]c2ccccc12)C(=O)O [WFMM] (H-WFMM-OH) |  |  | 30 |  | Morphology ([1]; line of the table gives 30 mM): fibre; State [2, 4]: gel; GELATION ([2]; peptide concentration 30 mM): 1 |
| CC[C@H](C)[C@H](NC(=O)[C@@H](NC(=O)[C@@H](N)Cc1c[nH]c2ccccc12)[C@@H](C)CC)C(=O)N[C@@H](Cc1ccccc1)C(=O)O [WIIF] (H-WIIF-OH) |  |  | 30 |  | Morphology ([1]; line of the table gives 30 mM): fibre; State [2, 4]: gel; GELATION ([2]; peptide concentration 30 mM): 1 |
| NCCCC[C@H](NC(=O)[C@@H](N)Cc1c[nH]c2ccccc12)C(=O)N[C@@H](Cc1ccccc1)C(=O)N[C@@H](Cc1ccccc1)C(=O)O [WKFF] (H-WKFF-OH) |  |  | 60 |  | morphology by TEM (in words) [1]: entangled nanofibers; State [2, 5]: gel; GELATION ([2]; peptide concentration 60 mM): 1; hydrogel formation (in words) [2]: hydrogels |
| CC(C)C[C@H](NC(=O)[C@@H](N)Cc1c[nH]c2ccccc12)C(=O)N[C@H](C(=O)N[C@@H](Cc1c[nH]c2ccccc12)C(=O)O)C(C)C [WLVW] (H-WLVW-OH) |  |  | 90 |  | Morphology ([1]; line of the table gives 90 mM): fibre; State ([2]; 90 mM peptide in ultrapure water, pH 6.5-8.5 (1 N NaOH), no gel at lower concentrations): gel; GELATION ([2]; peptide concentration 90 mM): 1 |
| N[C@@H](Cc1c[nH]c2ccccc12)C(=O)N1CCC[C@H]1C(=O)N[C@@H](Cc1ccc(O)cc1)C(=O)N[C@@H](Cc1ccc(O)cc1)C(=O)O [WPYY] (H-WPYY-OH) | sphere | precipitate | 120 | 0 | hydrogel formation (in words) [2]: cannot |
